Experimental findings from ChEMBL document CHEMBL1926609, “Synthesis of 9-phosphonoalkyl and 9-phosphonoalkoxyalkyl purines: evaluation of their ability to act as inhibitors of Plasmodium falciparum, Plasmodium vivax and human hypoxanthine-guanine-(xanthine) phosphoribosyltransferases” (Bioorg Med Chem, 2012) are described below.

Assay [1] deals with T1, Hypoxanthine-guanine phosphoribosyltransferase (Homo sapiens, UniProt P00492).
T1 sequence (P00492 whole entry): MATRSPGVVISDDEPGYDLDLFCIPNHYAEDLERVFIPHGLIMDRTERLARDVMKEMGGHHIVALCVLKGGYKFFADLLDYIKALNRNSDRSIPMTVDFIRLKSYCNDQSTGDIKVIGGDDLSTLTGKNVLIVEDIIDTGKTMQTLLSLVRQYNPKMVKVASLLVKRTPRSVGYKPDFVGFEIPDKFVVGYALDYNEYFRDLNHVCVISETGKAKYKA
Description: Inhibition of human HGPRT.

The nature of assay [2]: Inhibition of Plasmodium falciparum HGXPRT.
Assay [3] in a line: Inhibition of Plasmodium vivax HGPRT.

For `O=c1[nH]cnc2c1ncn2CCCP(=O)(O)O`, the inhibition constant (Ki) in assay [1], in assay [2] and in assay [3] was greater than 100 µM throughout.
Regarding `O=c1[nH]cnc2c1ncn2CCCCCCP(=O)(O)O`, the inhibition constant (Ki) in assay [1] came out at 77 µM; in assay [2] it was 97 µM.
As to `O=c1[nH]cnc2c1ncn2CCCCP(=O)(O)O`, the inhibition constant Ki in assay [1], in assay [2] and in assay [3] was greater than 100 µM each time.
For the molecule `O=c1[nH]cnc2c1ncn2COCCCCP(=O)(O)O`, the results for the Ki in assay [1] and in assay [2] were 28 µM and 29 µM, respectively.
On to `Nc1nc2c(ncn2CCCCCCP(=O)(O)O)c(=O)[nH]1`, for which the Ki in assay [1] was 0.5 µM; in assay [2], greater than 100 µM; in assay [3] it was greater than 100 µM.
`Nc1nc2c(ncn2CCP(=O)(O)O)c(=O)[nH]1`: the inhibition constant (Ki) in assay [1], in assay [2] and in assay [3] was greater than 100 µM in each case.
Regarding `O=P(O)(O)CCCCCn1cnc2c(O)ncnc21`, the inhibition constant Ki in assay [1] is greater than 100 µM; in assay [2] it was 21 µM.
In the case of `O=c1[nH]cnc2c1ncn2CCCCCCCP(=O)(O)O`, the Ki in assay [1], in assay [2] and in assay [3] was greater than 100 µM in each case.
As to `O=c1[nH]cnc2c1ncn2CCP(=O)(O)O`, the Ki in assay [1] was 3.4 µM; in assay [2], 2.2 µM; in assay [3], greater than 100 µM.
With `Nc1nc(O)c2ncn(CCCCP(=O)(O)O)c2n1`, the Ki in assay [1] was 21 µM; in assay [2], greater than 100 µM; in assay [3], greater than 100 µM.
For `O=c1[nH]cnc2c1ncn2CP(=O)(O)O`, the values for the Ki in assay [1], in assay [2] and in assay [3] were 1.9 µM, greater than 100 µM and greater than 100 µM, respectively.
In the case of `Nc1nc(O)c2ncn(CCCCCP(=O)(O)O)c2n1`, the inhibition constant Ki turned out to be 0.5 µM in assay [1], 2 µM in assay [2] and 6 µM in assay [3].
Consider `Nc1nc2c(ncn2CCCP(=O)(O)O)c(=O)[nH]1`, for which the inhibition constant Ki in assay [1], in assay [2] and in assay [3] was greater than 100 µM each time.
In the case of `Nc1nc(O)c2ncn(COCCP(=O)(O)O)c2n1`, the results for the Ki in assay [1], in assay [2] and in assay [3] were 31 µM, 5 µM and 24 µM, respectively.
As for `O=c1[nH]cnc2c1ncn2COCCP(=O)(O)O`, the inhibition constant Ki in assay [1] stood at 56 µM; in assay [2] it was 25 µM; in assay [3] it was 30 µM.
Taken in the same sequence, the figures for `Nc1nc2c(ncn2CP(=O)(O)O)c(=O)[nH]1` were greater than 100 µM, greater than 100 µM and greater than 100 µM.
For `Nc1nc2c(ncn2COCCCP(=O)(O)O)c(=O)[nH]1`, the results for the Ki in assay [1], in assay [2] and in assay [3] were 3 µM, 6.7 µM and 1 µM, respectively.
Take `Nc1nc(O)c2ncn(CCCCCCCP(=O)(O)O)c2n1`: the inhibition constant Ki in assay [1] amounted to 5 µM; in assay [2] it was 10 µM.
`Nc1nc(O)c2ncn(COCCCCP(=O)(O)O)c2n1`: the inhibition constant (Ki) in assay [1] is 0.4 µM; in assay [2], 200 µM; in assay [3] it was greater than 100 µM.
